Test results: US20220160703A1, “TUMOR-SELECTIVE COMBINATION THERAPY” (The Board of Regents of The University of Texas System, priority 2019, published 2022)

How the values were obtained:
[1] = test system: NQO1 positive human lung carcinoma lines A549; experiment: Cell survival of A549 cells (SRB); assay type: cell-based; details: β-lap 0-6 μM 3 hr, survival 4 days later
Procedure: (FIG. 18A) B16 NQO1 #1 cells were subcutaneously transplanted into C57BL/6 WT and Rag1KO mice (n=5/group), respectively. Tumor bearing mice were treated with β-lap (0.3 mg, i.t.) every other day for four times. (FIG. 18B) Changes of the immune cells in the tumor microenvironment 7 days after β-lap treatment. C57BL/6 mice (n=4/group) were transplanted with MC38 cells and intratumorally treated with 0.3 mg of β-lap for two times. 7 days after the last treatment, tumor tissue was removed and digested, and immune cells were analyzed with flow cytometer (unpaired student t-test was used to analyze the significance of changes, *P<0.05, **P<0.01). (FIG. 18C) C57BL/6 mice were transplanted with MC38 cells and treated with β-lap (0.3 mg, i.t.) every other day for four times. For T cell depletion, 200 μg of anti-CD4 or anti-CD8 antibodies were injected four times at three days interval during the treatment. […] Data are shown as mean±SEM.
Sulforhodamine B (SRB) Cytotoxicity Assay. 4,000 cells were planted in 96 or 48 well plate with triplicates. After overnight growth, cells were exposed to β-lapachone with or without NQO1 inhibitor dicoumarol (50 μM) for a 3-hour pulse.

[2] = test system: NQO1 positive tumor cell lines MC38, TC-1 and Ag104Ld; assay type: cell-based
Procedure: (§1) (FIG. 1A) NQO1 positive tumor cell lines MC38, TC-1 and Ag104Ld and NQO1 negative cell lines Panc02 and B16 grown in 48-well plates were treated with β-lap (0-8 μM) for a 3 hr followed by washing and replacing medium. Cell viability was determined by Sulforhodamine B (SRB) Assay 4 days later. […] (FIG. 1C) MC38 cells with CRISPR-based NQO1 Knockout (MC38 NQO1KO #5) planted in 96-well plates were exposed to β-lap for 3 hr and cell survival was assessed 48 hr later. […] (FIG. 1E) MC38 cells were exposed to a lethal dose of β-lap (4 μM) for indicated times, then stained with 7-AAD and Annexin V followed by flow cytometry analysis. […] (FIG. 1H) MC38 and B16 NQO1 #1 cells were exposed to β-lap for a 3 hr. Catalase (1000 U/ml) was added and cell survival was assessed 48 hr later. (FIG. 1I) C57BL/6 mice (n=5/group) were transplanted with MC38 cells and treated with β-lap (0.03 mg, 0.1 mg or 0.3 mg, intratumorally; or 25 mg/kg, i.v.) every other day for four times. […] Tumor growth was monitored twice a week.
(FIG. 8A) NQO1 expression in multiple murine tumor lines was immunoblotted as indicated. […] Drugs were removed and survival assessed 5 days later. (FIG. 8C) Relative H2O2 levels were assessed in various cells treated with β-lap for 3 h at the indicated doses using CellRox-Glo. […] (FIG. 8D) TC-1 cells exposure to β-lap for 12 h, later PARP-1 and Caspase-3 levels were analyzed by western blotting assay. […]
(FIGS. 14A-C) NQO1 cells MC38 (A) and TC-1 (B) and NQO1^− cells B16 (C) were treated for 2 h with various doses of IB-DNQ±DIC (50 μM). Drugs were removed and survival assessed 6 days later. […] (FIGS. 14E-F) Relative NAD^+ (E) or ATP (F) levels were assessed in TC-1 cells exposed to various doses of IB-DNQ for 2 h. […] Comet tail lengths in a.u. were monitored at indicated time; and DSBs quantified by γH2AX foci/nuclei using immunofluorescence at indicated time (FIG. 14H). […]
(FIG. 21A) Viability of murine cell lines following IB-DNQ treatment for 4 h. […] (FIGS. 21D-E) DNA double strand break was assessed via comet assay (FIG. 21D) and γH2AX foci/nuclei immunofluorescence (FIG. 21E). […]

[3] = test system: MC38 cells with CRISPR-based NQO1 Knockout; experiment: Cell survival of NQO1 knockout MC38 cells; assay type: cell-based, murine; details: 3 hr exposure, survival 48 hr later
Procedure: as §1, with “later.” for “later. (FIG. 1I) C57BL/6 mice (n=5/group) were transplanted with MC38 cells and treated with β-lap (0.03 mg, 0.1 mg or 0.3 mg, intratumorally; or 25 mg/kg, i.v.) every other day for four times.”
FIGS. 17A-I (related to FIGS. 1A-J). […] (FIG. 17A) NQO1 expression in different murine cancer cell lines was determined by western blotting assay. […] Cell viability was determined by Sulforhodamine B (SRB) Assay 48 hr later. […] Cell viability was determined by SRB Assay 48 hr later. […] Catalase (1000 U/ml) was added and cell viability was assessed 48 hr later. […] Tumor growth was monitored twice a week. […] Data are shown as mean±SEM. **P<0.01, ***P<0.001, ****P<0.0001 determined by unpaired student t-test (FIG. 17G) or two-way ANOVA (FIG. 17H and FIG. 17I). […]

Question: With `CC1(C)CCC2=C(O1)c1ccccc1C(=O)C2=O` [β-lap, β-lapachone] as the compound, how does the “response to β-lap in vitro” value [1] read?
Answer: sensitive

Question: And the “response to 3 h β-lap exposure (cell viability)” value ([2]; β-lap 0-8 μM, 3 hr, SRB 4 days later)?
Answer: sensitive

Question: And the cell killing ([2]; β-lap 3 h ± DIC 50 μM, survival 5 days later)?
Answer: selectively killed

Question: What about the “response to β-lap (cell survival)” value [3] of the same compound?
Answer: resistance to β-lap treatment
